Assay results reported in publication PMC7305075 (Cancer Chemotherapy and Pharmacology, 2020).
Like-named read-outs stand apart in the source and are kept apart here.

Legend:
[1] = cited from earlier work
UGT1A1 = conditions: in vitro studies; ref [21]; cited from earlier work
UGT1A9 = conditions: cited from earlier work
UGT2B15 = tested on: UGT2B15; design: method as in Liu et al. [26]; conditions: in vitro, recombinant UDP-glucuronyl transferases and liver microsomes, paracetamol glucuronidation; ref Liu et al. [26]; cited from earlier work
[2] = in vitro study; ref [42]; cited from earlier work
[3] = Plasma pharmacokinetics of paracetamol, paracetamol glucuronide and paracetamol sulphate in rats (HPLC-UV, non-compartmental); assay type: in vivo, Wistar rats; conditions: for Cmax / ka (absorption rate constant): plasma, mean ± SD (CV %)
Description: The experimental protocol assuming involvement of animals in this study was reviewed and approved by the Local Ethics Committee, Poznań, Poland (no 61/2017). All procedures were performed in accordance with the European Union regulations concerning the handling and use of laboratory animals. Adult male Wistar rats (weight 480–530 g) were used in the study. The animals were maintained under standard breeding conditions with a 12/12 h light–dark cycle (lights on at 06.00, lights off at 18.00) at constant room temperature (23 ± 2 °C), relative humidity of 55 ± 10% and given ad libitum access to food and water. The animals were allowed to acclimatise for a week before the beginning of the experiments. The rats were divided into three groups. […] To make sure that the animals received the entire dose of the drug, 1 mL of 10% DMSO was then administered to rinse the probe. 100 µL of blood was collected from each rat by cutting off a piece of his tail. The blood samples were collected into heparinised test tubes at the following time points: 0, 0.5, 1, 2, 3, 4, 5, 6, 7, 8, 10, 12, 24, 30, 48, 72, 96 h. […] All the blood samples were centrifuged at 2.880 g for 10 min at 4 °C.
Separation was achieved by isocratic elution of the mobile phase, comprising sodium sulphate 0.05 M pH 2.2 (adjusted with 85% orthophosphoric acid) and acetonitrile (93:7, v/v), at a flow rate of 1.0 mL/min through an BDS Hypersil® C18 column (150 mm × 4.6 mm, 5.0 μm particle size) (Thermo Electron Corporation®, Waltham, MA, USA). The total time of analysis for each run was 10 min. The column temperature was maintained at 25 °C, the UV detection wavelength was set at 254 nm and the injection volume was 50 μL. Theophylline was used as the internal standard (IS).
The maximum plasma concentration (Cmax) and the time to reach the Cmax (tmax) were derived directly from the observed plasma concentrations. The total area under the concentration–time curve (AUC) was estimated by the trapezoidal rule with extrapolation from time zero to infinity (AUC0-∞). The elimination half-life (t0.5) was estimated from ln2/kel. The apparent plasma drug clearance (Cl/F) was calculated by dividing the dose (D) by the AUC0-∞. The apparent volume of distribution (Vd/F) was estimated from D/(kel × AUC0-∞).

[4] = design: method as in Karbownik et al. [36]–[38]; conditions: in vivo; ref Karbownik et al. [36]–[38]; cited from earlier work
[5] = design: method as in Karbownik et al. [36], [37]; conditions: ref Karbownik et al. [36], [37]; cited from earlier work
[6] = Plasma pharmacokinetics of sorafenib and sorafenib N-oxide in rats (HPLC-UV, non-compartmental); assay type: in vivo, Wistar rats; conditions: mean ± SD (CV %)
Description: The experimental protocol assuming involvement of animals in this study was reviewed and approved by the Local Ethics Committee, Poznań, Poland (no 61/2017). All procedures were performed in accordance with the European Union regulations concerning the handling and use of laboratory animals. Adult male Wistar rats (weight 480–530 g) were used in the study. The animals were maintained under standard breeding conditions with a 12/12 h light–dark cycle (lights on at 06.00, lights off at 18.00) at constant room temperature (23 ± 2 °C), relative humidity of 55 ± 10% and given ad libitum access to food and water. The animals were allowed to acclimatise for a week before the beginning of the experiments. The rats were divided into three groups. […] To make sure that the animals received the entire dose of the drug, 1 mL of 10% DMSO was then administered to rinse the probe. 100 µL of blood was collected from each rat by cutting off a piece of his tail. The blood samples were collected into heparinised test tubes at the following time points: 0, 0.5, 1, 2, 3, 4, 5, 6, 7, 8, 10, 12, 24, 30, 48, 72, 96 h. […]
The maximum plasma concentration (Cmax) and the time to reach the Cmax (tmax) were derived directly from the observed plasma concentrations. […] The apparent plasma drug clearance (Cl/F) was calculated by dividing the dose (D) by the AUC0-∞. […]

[7] = design: method as in PMID 26739624; conditions: ref [24], cited from earlier work
[8] = cited from earlier work; remark: listed apart in the source
[9] = in vitro, recombinant UDP-glucuronyl transferases and liver microsomes, paracetamol glucuronidation, ref Liu et al. [26]
[10] = IS+PA group (with sorafenib) vs. IIIPA group
[11] = single oral paracetamol 100 mg/kg b.w. + sorafenib 100 mg/kg b.w. (IS+PA group)
[12] = single oral paracetamol 100 mg/kg b.w. alone (IIIPA group)
[13] = analogous dose (100 mg/kg) orally, ref Mekjaruskul et al. [35]
[14] = single dose 100 mg/kg orally, ref Pingili et al. [34]

## CNC(=O)c1cc(Oc2ccc(NC(=O)Nc3ccc(Cl)c(C(F)(F)F)c3)cc2)ccn1 [Sorafenib]
[1]; ref Wang [27]
  Cmax: 230.86 ng/mL
  tmax: 8.14 h
[1]; ref Wang [39]
  Cmax: 338 ng/mL
UGT1A1
  inhibition of UGT1A1: particularly inhibits
UGT1A9; in vitro studies, ref [21]
  inhibition of UGT1A9: particularly inhibits
UGT1A9; [9]
  inhibition of UGT1A9: inhibited
UGT2B15
  inhibition of UGT2B15: inhibited
[2]
  binding to human plasma proteins: 99.8%

## CC(=O)Nc1ccc(O[C@@H]2O[C@H](C(=O)O)[C@@H](O)[C@H](O)[C@H]2O)cc1 [Paracetamol glucuronide, paracetamol glucuronide]
[3]; [10]
  decrease in AUC0-∞: 42%
  reduction in Cmax: 48%
[3]; [11]
  Cmax: 19830 ng/mL
[3]; [12]
  Cmax: 38380 ng/mL

## Cc1nc(Nc2ncc(C(=O)Nc3c(C)cccc3Cl)s2)cc(N2CCN(CCO)CC2)n1 [dasatinib]
UGT1A9; [9]
  inhibition of UGT1A9: inhibited
UGT2B15
  inhibition of UGT2B15: inhibited

## C#Cc1cccc(Nc2ncnc3cc(OCCOC)c(OCCOC)cc23)c1 [erlotinib]
[4]
  decrease of the AUC0-∞ of paracetamol after administration of the TKI: 35.5%
  drop of the Cmax of paracetamol after administration of the TKI: 18.9%
[5]
  increase in AUC0-t of the TKI on co-administration with paracetamol: 31%
  increase in Cmax of the TKI on co-administration with paracetamol: 88%

## CNC(=O)c1cc(Oc2ccc(NC(=O)Nc3ccc(Cl)c(C(F)(F)F)c3)cc2)cc[n+]1[O-] [Sorafenib N-oxide, sorafenib N-oxide]
[6]; [11]
  tmax: 15.5 h
[6]; single oral sorafenib 100 mg/kg b.w. alone (IIS group)
  tmax: 16.3 h

## CC(=O)Nc1ccc(O)cc1 [Paracetamol]
[3]; [10]
  increase in AUC0-∞: 71%
  increase in Cmax: 33%
[3]; [11]
  ka (absorption rate constant): 2.09 ± 1.11 h⁻¹
[3]; [12]
  ka (absorption rate constant): 2.35 ± 0.99 h⁻¹
[7]; metabolism in the liver
  fraction conjugated with cysteine: 3%
  fraction conjugated with glucuronic acid: 60%
  fraction conjugated with sulphuric acid: 30%
[7]
  fraction N-hydroxylated through cytochrome P-450 (CYP2E1) to NAPQI: 5–10%
[8]; [13]
  Cmax: 19100 ng/mL
  t0.5: 21.29 min
  tmax: 1.0 h
[8]; [14]
  Cmax: 5040 ng/mL
  t0.5: 266 min
  tmax: 1.16 h

## CS(=O)(=O)CCNCc1ccc(-c2ccc3ncnc(Nc4ccc(OCc5cccc(F)c5)c(Cl)c4)c3c2)o1 [lapatinib]
[4]
  decrease of the AUC0-∞ of paracetamol after administration of the TKI: 48.8%
  drop of the Cmax of paracetamol after administration of the TKI: 55.7%
[5]
  increase in AUC0-t of the TKI on co-administration with paracetamol: 240%
  increase in Cmax of the TKI on co-administration with paracetamol: 184%

## CCN(CC)CCNC(=O)c1c(C)[nH]c(/C=C2\C(=O)Nc3ccc(F)cc32)c1C [sunitinib]
[4]
  decrease of the AUC0-∞ of paracetamol after administration of the TKI: 68.19%
  drop of the Cmax of paracetamol after administration of the TKI: 63.95%
